The text below walks through data of patent US5733931A, “Cyclohexanediurea derivative and process for its production” (Nissin Food Products Co., Ltd., priority 1993, dated 1998).

Broadly, the IC50 is the concentration that inhibits the measured activity by half.

Experiment [1] concerns the target ACAT (Acyl-CoA: cholesterol acyltransferase) enzyme of rabbit liver microsome. Put plainly: Inhibitory effect on ACAT enzyme (No.1), rabbit liver microsome. Format: biochemical. The following applies: Table 9. Here is the method: 1) Inhibitory effect on ACAT (Acyl-CoA: cholesterol acyltransferase) enzyme (No.1)
Compounds of the invention were tested for their inhibitory effects on ACAT enzyme of rabbit liver microsome by the method of J. G. Heider (J. of Lipid Res., vol. 24, 1127-1134, 1983). More specifically, the test was done by measuring the amount of labelled cholesterol oleate ester produced from oleic acid CoA (coenzyme A) labelled by radiation.

Experiment [2] has as its system serum cholesterol. The experiment can be described thus: Serum cholesterol lowering effect in rat having high cholesterol [3-1]. The following applies: oral, once a day for 5 days, dissolved in saline, Table 12. Format: in vivo, SD-type (Sprague-Dawley) male rat. On the procedure:
3) Cholesterol Lowering Effect
[3-1] Using a rat having high cholesterol, compounds of the invention were tested for their serum cholesterol lowering effects by the following method. A 6-week-old SD-type (Sprague-Dawley) male rat was fed with food containing 1% of cholesterol, 0.5% of cholic acid and 5% of olive oil for 2 days and then orally administered the food and a compound of the invention as dissolved in saline once a day for 5 days starting on day 3. Four hours after the final administration, a blood sample was taken. The total cholesterol in the serum of the test group was measured and compared with that of the control group.

In experiment [3] the target is ACAT enzyme of rabbit liver microsomes. Put plainly: Inhibitory effect on ACAT enzyme (No.2), rabbit liver microsomes. Format: biochemical. The following applies: pH 7.4, 37° C., 60 minutes, Table 10. On the procedure: (§1) 2) Inhibitory effect on ACAT (Acyl-CoA: cholesterol acyltransferase) enzyme (No.2)
(§2) [2-1] ACAT enzyme activities of rabbit liver and small intestine mucosa microsomes
(§3) A white male rabbit was fed with a […] cholesterol-containing food for four weeks and bleeding-slaughtered to extract its liver and small intestine. Microsomes of the liver and small intestine mucosa were prepared by the method of C. Marco et al. (Biochim. Biophys. Acta, 617, 458-471, 1980).
(§4) ACAT enzyme activities of the microsomes were determined by the method of J. G. Heider (J. Lipid Res., 24, 1127-1134, 1983). A test sample dissolved in 1% dimethylsulfoxide was added to a microsome fraction (100 μg), a phosphoric acid buffer (0.154M) having pH 7.4, 1-^14 C-oleoyl CoA (36 μM), dithiosleitol (2 mM) and bovine blood serum albumin (36 μg/ml). The reaction mixture adjusted to a final capacity of 0.5 ml was incubated at 37° C. for 60 minutes. A mixture (6 ml) of chloroform and methanol (2:1) was added and the reaction was stopped. Cholesterol oleate was extracted with chloroform and separated by thin-layer chromatography. ACAT enzyme activities of the microsome fractions were determined by radiation measurement.
On the technique in general: Liver microsomes are vesicles of endoplasmic reticulum, rich in cytochrome P450 enzymes.

Experiment [4] relates to serum cholesterol. The experiment can be described thus: Serum cholesterol lowering effect in rat having high cholesterol [3-2]. Format: in vivo, SD-type (Sprague-Dawley) male rat. The following applies: oral, once a day for the last 5 days, Tween 80 and saline suspension, Table 13. On the procedure: [3-2] Using a rat having high cholesterol, compounds of the invention were tested for their serum cholesterol lowering effects by the following method. A 6-week-old SD-type (Sprague-Dawley) male rat was fed with food containing 1% of cholesterol, 0.5% of cholic acid and 5% of olive oil for 7 days. For the last 5 days, a test sample suspended in some drops of Tween 80 and saline was orally administered once a day. Four hours after the final administration, a blood sample was taken from celiac aorta of the rat under etherization. The total cholesterol in the serum of the test group was measured by the oxygen method and compared with that of the control group.

The test system of experiment [5] is ACAT enzyme of human CaCo2 cells. Put plainly: ACAT enzyme activity of human CaCo2 cells (microsome fractions). Format: biochemical. The following applies: Table 11, read-out: IC50, inhibitory effect on ACAT enzyme activity, human CaCo2. On the procedure:
as §4
(§5) [2-2] ACAT enzyme activities of human HepG2 and CaCo2 cells
(§6) Human HepG2 and CaCo2 cells purchased from ATCC (AMERICAN TYPE CULTURE COLLECTION) were used in this test.
(§7) Using RPMI 1640 medium for HepG2 and DMEM medium for CaCo2, HepG2 and CaCo2 cells were cultured with 40 ml of each medium containing 10% bovine blood serum, 50 I.U. of penicillin and 50 μg/ml of streptomycin in a 5% CO2 incubator at 37° C. The cells were then monolayer-culturedwith 80 ml of each medium containing […] of cholesterol and 5 μg/ml of 25-0H cholesterol in a 175 cm flask for 5 hours. The homogenizes of these cells were subjected to centrifugation at 105,000 g to collect microsome fractions. ACAT enzyme activities of the microsome fractions were determined by the above-mentioned method.

In experiment [6] the target is T1, ACAT enzyme of rabbit small intestine mucosa microsomes (Oryctolagus cuniculus, UniProt G1SFD9).
T1 construct: Microsomes of the liver and small intestine mucosa were prepared; from tissue; host or cells: small intestine mucosa microsomes of a cholesterol-fed white male rabbit
T1 sequence (G1SFD9 1-524): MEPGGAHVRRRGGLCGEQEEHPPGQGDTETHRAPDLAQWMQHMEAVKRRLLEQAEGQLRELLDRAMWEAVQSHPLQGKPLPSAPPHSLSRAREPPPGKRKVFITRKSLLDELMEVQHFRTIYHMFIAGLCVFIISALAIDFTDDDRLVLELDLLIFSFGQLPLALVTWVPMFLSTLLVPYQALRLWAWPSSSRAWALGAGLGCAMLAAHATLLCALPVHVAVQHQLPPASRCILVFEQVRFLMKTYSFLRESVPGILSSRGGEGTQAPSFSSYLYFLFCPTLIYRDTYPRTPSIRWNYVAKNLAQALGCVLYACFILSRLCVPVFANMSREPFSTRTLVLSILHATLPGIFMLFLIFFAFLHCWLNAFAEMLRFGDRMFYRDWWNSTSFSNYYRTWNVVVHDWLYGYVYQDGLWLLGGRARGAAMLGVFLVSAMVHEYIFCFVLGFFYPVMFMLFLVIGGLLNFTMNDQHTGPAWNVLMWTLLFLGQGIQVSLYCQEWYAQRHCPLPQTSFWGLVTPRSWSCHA
The experiment can be described thus: Inhibitory effect on ACAT enzyme (No.2), rabbit small intestine mucosa microsomes. The following applies: pH 7.4, 37° C., 60 minutes, Table 10. Format: biochemical. On the procedure: as §1, §2, §3, §4

Experiment [7] has as its system ACAT enzyme of human HepG2 cells. The experiment can be described thus: ACAT enzyme activity of human HepG2 cells (microsome fractions). Format: biochemical. The following applies: Table 11, read-out: IC50, inhibitory effect on ACAT enzyme activity, human HepG2. Here is the method: as §4, §5, §6, §7

In experiment [1], `CN(C)c1ccc(NC(=O)N(C[C@H]2CCC[C@H](CN(C(=O)Nc3ccc(N(C)C)cc3)C3CCCCCC3)C2)C2CCCCCC2)cc1` (relative stereo) [Example 61, Trans-1,3-bis[[1-cycloheptyl-3-(4-dimethylaminophenyl)ureido]methyl]cyclohexane] showed a concentration for half-maximal inhibition (IC50) of 36 nM. The “Cholesterol lowering effect, % (serum total cholesterol vs control group)” value (“Cholesterol lowering effect, %” below) in the experiment with serum cholesterol [2] (3 mg/kg) stood at 48%; in the experiment on serum cholesterol [2] (10 mg/kg), 82%.

`CN(C)c1ccc(NC(=O)N(CC(C)(C)C)C[C@H]2CC[C@H](CN(CC(C)(C)C)C(=O)Nc3ccc(N(C)C)cc3)CC2)cc1` [Example 7, Trans-1,4-bis[[3-(4-dimethylaminophenyl)-1-neopentylureido]methyl]cyclohexane] had an IC50 in experiment [1] of 100 nM. In addition, the “Cholesterol lowering effect, %” value in the experiment with serum cholesterol [2] (3 mg/kg) worked out at 105%; in the experiment on serum cholesterol [2] (10 mg/kg), 103%.

The molecule `CN(C)c1ccc(NC(=O)N(C[C@H]2CC[C@H](CN(C(=O)Nc3ccc(N(C)C)cc3)C3CCCC3)CC2)C2CCCC2)cc1` [Example 11, Trans-1,4-bis[[1-cyclopentyl-3-(4-dimethylaminophenyl)ureido]methyl]cyclohexane] gave an IC50 in experiment [1] of 47 nM. Moreover, the “Cholesterol lowering effect, %” value in the experiment on serum cholesterol [2] (3 mg/kg) is 108%; with serum cholesterol [2] (10 mg/kg), 101%.

On to `CN(C)c1ccc(NC(=O)N(C[C@H]2CC[C@H](CN(C(=O)Nc3ccc(N(C)C)cc3)C3CCCCC3)CC2)C2CCCCC2)cc1` [Example 12, Trans-1,4-bis[[1-cyclohexyl-3-(4-dimethylaminophenyl)ureido]methyl]cyclohexane], for which the concentration for half-maximal inhibition (IC50) was determined as 36 nM in experiment [3], 0.74 nM in experiment [5], 24 nM in experiment [6] and 1.1 nM in experiment [7]. Moreover, the “Cholesterol lowering effect, %” value is listed as 96.2% in the experiment with serum cholesterol [4] (1 mg/kg) and 92.6% with serum cholesterol [4] (3 mg/kg).

On to `CN(C)c1ccc(NC(=O)N(C[C@H]2CC[C@H](CN(C(=O)Nc3ccc(N(C)C)cc3)C3CCCCC3)CC2)C2CCCCC2)cc1` [Example 12-1, Trans-1,4-bis[[1-cyclohexyl-3-(4-dimethylaminophenyl)ureido]methyl]cyclohexane], for which the IC50 in experiment [3] turned out to be 78 nM; in experiment [5], 1.5 nM; in experiment [6], 29 nM; in experiment [7], 1.5 nM. Moreover, the “Cholesterol lowering effect, %” value is reported as 100.4% in the experiment with serum cholesterol [4] (1 mg/kg) and 108.3% in the experiment on serum cholesterol [4] (3 mg/kg).

`O=C(Nc1ccc(N2CCCCCC2)cc1)N(C[C@H]1CC[C@H](CN(C(=O)Nc2ccc(N3CCCCCC3)cc2)C2CCCCC2)CC1)C1CCCCC1` [Example 14-2, Trans-1,4-bis[[1-cyclohexyl-3-(4-homopiperidinophenyl)ureido]methyl]cyclohexane]: the IC50 was determined as 62 nM in experiment [3], 1.6 nM in experiment [5], 52 nM in experiment [6] and 0.27 nM in experiment [7].

Turning to `O=C(Nc1ccc(N2CCOCC2)cc1)N(C[C@H]1CC[C@H](CN(C(=O)Nc2ccc(N3CCOCC3)cc2)C2CCCCC2)CC1)C1CCCCC1` [Example 14-4, Trans-1,4-bis[[1-cyclohexyl-3-(4-morpholinophenyl)ureido]methyl]cyclohexane], the “Cholesterol lowering effect, %” value in the experiment on serum cholesterol [4] (1 mg/kg) is listed as 79.9%; with serum cholesterol [4] (3 mg/kg), 98.8%.

In experiment [1], `CN(C)c1ccc(NC(=O)N(C[C@H]2CC[C@H](CN(C(=O)Nc3ccc(N(C)C)cc3)C3CCCCCC3)CC2)C2CCCCCC2)cc1` [Example 15, Trans-1,4-bis[[1-cycloheptyl-3-(4-dimethylaminophenyl)ureido]methyl]cyclohexane] had a 50% inhibitory concentration (IC50) of 38 nM. Besides, the “Cholesterol lowering effect, %” value turned out to be 93% with serum cholesterol [2] (3 mg/kg) and 99% with serum cholesterol [2] (10 mg/kg).

Consider `CN(C)c1ccc(NC(=O)N(C[C@H]2CC[C@@H](CN(C(=O)Nc3ccc(N(C)C)cc3)C3CCCCC3)CC2)C2CCCCC2)cc1` [Example 42, Cis-1,4-bis[[1-cyclohexyl-3-(4-dimethylaminophenyl)ureido]methyl]cyclohexane], for which the midpoint of inhibition in experiment [1], the IC50, lay at 60 nM. Also, the “Cholesterol lowering effect, %” value turned out to be 110% in the experiment with serum cholesterol [2] (3 mg/kg) and 102% in the experiment on serum cholesterol [2] (10 mg/kg).

As to `CN(C)c1ccc(NC(=O)N(C[C@H]2CC[C@@H](CN(C(=O)Nc3ccc(N(C)C)cc3)C3CCCCCC3)CC2)C2CCCCCC2)cc1` [Example 43, Cis-1,4-bis[[1-cycloheptyl-3-(4-dimethylaminophenyl)ureido]methyl]cyclohexane], the half-inhibitory concentration (IC50) in experiment [1] came out at 50 nM. Also, the results for the “Cholesterol lowering effect, %” value in the experiment on serum cholesterol [2] (3 mg/kg) and in the experiment on serum cholesterol [2] (10 mg/kg) were 88% and 107%, respectively.

`CN(C)c1ccc(NC(=O)N(C[C@@H]2CCC[C@H](CN(C(=O)Nc3ccc(N(C)C)cc3)C3CCCCCC3)C2)C2CCCCCC2)cc1` [Example 83, Cis-1,3-bis[[1-cycloheptyl-3-(4-dimethylaminophenyl)ureido]methyl]cyclohexane]: 46 nM corresponded to half-maximal inhibition in experiment [1] (IC50). Also, the results for the “Cholesterol lowering effect, %” value in the experiment on serum cholesterol [2] (3 mg/kg) and with serum cholesterol [2] (10 mg/kg) were 43% and 91%, respectively.

For `CN(C)c1ccc(NC(=O)N(Cc2cccc(CN(C(=O)Nc3ccc(N(C)C)cc3)C3CCCCCC3)c2)C2CCCCCC2)cc1` [YM-17E, reference compound], the IC50 in experiment [3] was 23 nM; in experiment [1], 23 nM; in experiment [5], 14 nM; in experiment [7], 9.6 nM. Also, the “Cholesterol lowering effect, %” value in the experiment with serum cholesterol [4] (3 mg/kg) stood at 38.0%; in the experiment with serum cholesterol [2] (3 mg/kg) it was 38%; in the experiment with serum cholesterol [2] (10 mg/kg) it was 91%.
